In ChEMBL document CHEMBL1909046, “DrugMatrix in vitro pharmacology data” one finds IC50 and Ki data, which are given here for nine molecules.

pIC50, pKi: −log10 of the molar value.

In experiment [1] the target is T1, Alpha-1A adrenergic receptor (Rattus norvegicus, UniProt P43140).
T1 sequence (P43140 whole entry): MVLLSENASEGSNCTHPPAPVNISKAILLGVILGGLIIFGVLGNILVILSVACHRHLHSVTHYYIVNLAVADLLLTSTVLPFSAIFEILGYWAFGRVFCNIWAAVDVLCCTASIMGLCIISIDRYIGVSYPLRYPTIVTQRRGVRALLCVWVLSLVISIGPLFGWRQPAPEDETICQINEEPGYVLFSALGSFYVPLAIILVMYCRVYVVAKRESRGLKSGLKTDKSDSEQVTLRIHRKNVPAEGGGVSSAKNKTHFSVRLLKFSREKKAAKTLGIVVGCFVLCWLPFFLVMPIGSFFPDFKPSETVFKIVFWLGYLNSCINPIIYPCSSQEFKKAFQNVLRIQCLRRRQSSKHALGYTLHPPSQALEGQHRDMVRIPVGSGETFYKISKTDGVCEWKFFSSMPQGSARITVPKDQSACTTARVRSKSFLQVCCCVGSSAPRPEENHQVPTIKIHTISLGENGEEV
Briefly: DRUGMATRIX: Alpha-1A adrenergic receptor radioligand binding (ligand: prazosin). In kind it is cell membranes, Wistar, Submaxillary gland, Membrane. The note with it: Not Active = under 50% inhibition at 10 µM.

In experiment [2] the target is Beta-1 adrenergic receptor (Homo sapiens, UniProt P08588). Briefly: DRUGMATRIX: Adrenergic beta1 radioligand binding (ligand: [125I] Cyanopindolol). It is filed as cell membranes, CHO-K1, Membrane. The following applies: cho-k1; Not Active = under 50% inhibition at 10 µM.
The target of experiment [3] is 5-hydroxytryptamine receptor 2B (Homo sapiens, UniProt P41595). It is filed as cell membranes, CHO-K1, Membrane. The following applies: for IC50: cho-k1. For all read-outs here: in other assays of this panel Not Active means under 50% inhibition at 10 µM.
The target in experiment [4] is Prostaglandin G/H synthase 1 (Homo sapiens, UniProt P23219). Briefly: biochemical. In kind it is tissue-based, Platelet. The following applies: platelet.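 Note: inhibition of COX-1 enzyme activity, with arachidonic acid supplied as substrate; in other assays of this panel Not Active means under 50% inhibition at 10 µM.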
The target of experiment [5] is Glycine receptor (Rattus norvegicus, UniProt P22771+P24524+P07727+P20781). It is filed as cell membranes, Wistar, Spinal cord, Membrane. Note: in other assays of this panel Not Active means under 50% inhibition at 10 µM.
A short description of experiment [6]: DRUGMATRIX: Interleukin IL-1 radioligand binding (ligand: [125I] interleukin 1beta). The following applies: nih3t3; Not Active = under 50% inhibition at 10 µM. It is filed as cell membranes, Membrane.
Experiment [7] deals with T2, Nitric oxide synthase, inducible (Mus musculus, UniProt P29477).
T2 sequence (P29477 whole entry): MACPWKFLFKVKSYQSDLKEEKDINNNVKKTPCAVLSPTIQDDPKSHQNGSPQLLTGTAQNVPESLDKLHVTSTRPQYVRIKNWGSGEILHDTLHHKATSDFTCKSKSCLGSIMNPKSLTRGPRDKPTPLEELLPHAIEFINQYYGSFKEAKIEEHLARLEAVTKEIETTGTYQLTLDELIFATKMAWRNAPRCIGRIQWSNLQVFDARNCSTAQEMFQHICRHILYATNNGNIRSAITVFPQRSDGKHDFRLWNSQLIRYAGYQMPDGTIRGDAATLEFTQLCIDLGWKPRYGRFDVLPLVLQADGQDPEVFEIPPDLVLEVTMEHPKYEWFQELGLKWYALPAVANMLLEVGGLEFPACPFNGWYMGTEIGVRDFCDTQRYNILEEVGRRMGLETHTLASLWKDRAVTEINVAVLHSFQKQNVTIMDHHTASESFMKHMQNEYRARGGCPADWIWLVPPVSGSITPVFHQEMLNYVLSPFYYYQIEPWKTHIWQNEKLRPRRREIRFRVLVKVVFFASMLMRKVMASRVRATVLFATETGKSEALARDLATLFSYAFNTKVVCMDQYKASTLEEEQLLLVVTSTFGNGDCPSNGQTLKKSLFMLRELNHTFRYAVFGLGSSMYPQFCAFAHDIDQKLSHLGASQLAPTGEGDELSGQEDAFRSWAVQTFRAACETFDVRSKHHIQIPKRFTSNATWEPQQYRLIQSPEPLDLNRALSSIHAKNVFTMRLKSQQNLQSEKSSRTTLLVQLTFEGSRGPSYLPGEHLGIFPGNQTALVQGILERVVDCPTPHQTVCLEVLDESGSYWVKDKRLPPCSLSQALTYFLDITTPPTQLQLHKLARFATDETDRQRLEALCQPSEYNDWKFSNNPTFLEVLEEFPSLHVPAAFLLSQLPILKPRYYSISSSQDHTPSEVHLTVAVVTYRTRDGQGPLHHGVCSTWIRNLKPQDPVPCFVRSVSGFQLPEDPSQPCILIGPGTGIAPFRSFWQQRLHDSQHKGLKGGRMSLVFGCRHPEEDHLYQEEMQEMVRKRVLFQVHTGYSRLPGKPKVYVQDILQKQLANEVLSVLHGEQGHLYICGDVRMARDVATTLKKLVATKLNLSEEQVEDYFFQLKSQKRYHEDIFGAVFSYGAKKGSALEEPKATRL
On the set-up: species or system Escherichia coli.

Experiment [8] deals with Delta-type opioid receptor (Homo sapiens, UniProt P41143). In kind it is cell membranes, HEK293, Membrane. The note with it: hek293.
Experiment [9] concerns the target T3, Interstitial collagenase (Homo sapiens, UniProt P03956).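 Note: MMP-1 enzyme inhibition assay using a peptide substrate; in other assays of this panel Not Active means under 50% inhibition at 10 µM.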
T3 sequence (P03956 whole entry): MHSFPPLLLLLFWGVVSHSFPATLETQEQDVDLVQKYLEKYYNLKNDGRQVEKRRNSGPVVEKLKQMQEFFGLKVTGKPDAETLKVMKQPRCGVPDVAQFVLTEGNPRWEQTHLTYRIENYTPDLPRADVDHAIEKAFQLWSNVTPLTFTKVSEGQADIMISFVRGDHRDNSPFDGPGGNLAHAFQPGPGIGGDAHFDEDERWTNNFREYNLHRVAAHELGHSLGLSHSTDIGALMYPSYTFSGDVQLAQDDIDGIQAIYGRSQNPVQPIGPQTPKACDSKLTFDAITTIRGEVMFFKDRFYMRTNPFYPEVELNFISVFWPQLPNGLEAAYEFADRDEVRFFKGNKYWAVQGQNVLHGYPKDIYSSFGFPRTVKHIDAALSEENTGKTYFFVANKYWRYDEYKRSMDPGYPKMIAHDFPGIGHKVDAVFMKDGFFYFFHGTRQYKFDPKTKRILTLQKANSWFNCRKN
It is filed as tissue-based, Rheumatoid synovial fibroblasts.

The target in experiment [10] is Epidermal growth factor receptor (Homo sapiens, UniProt P00533). Briefly: DRUGMATRIX: Protein Tyrosine Kinase, EGF Receptor enzyme inhibition (substrate: Poly(Glu:Tyr)). It is filed as cell-based, Insect cells. The following applies: insect cells; Not Active = under 50% inhibition at 10 µM.
Experiment [11] deals with Receptor tyrosine-protein kinase erbB-2 (Homo sapiens, UniProt P04626). Briefly: biochemical. It is filed as cell-based, Insect cells. The note with it: insect cells.
Receptor tyrosine-protein kinase erbB-2, sequence (P04626 whole entry): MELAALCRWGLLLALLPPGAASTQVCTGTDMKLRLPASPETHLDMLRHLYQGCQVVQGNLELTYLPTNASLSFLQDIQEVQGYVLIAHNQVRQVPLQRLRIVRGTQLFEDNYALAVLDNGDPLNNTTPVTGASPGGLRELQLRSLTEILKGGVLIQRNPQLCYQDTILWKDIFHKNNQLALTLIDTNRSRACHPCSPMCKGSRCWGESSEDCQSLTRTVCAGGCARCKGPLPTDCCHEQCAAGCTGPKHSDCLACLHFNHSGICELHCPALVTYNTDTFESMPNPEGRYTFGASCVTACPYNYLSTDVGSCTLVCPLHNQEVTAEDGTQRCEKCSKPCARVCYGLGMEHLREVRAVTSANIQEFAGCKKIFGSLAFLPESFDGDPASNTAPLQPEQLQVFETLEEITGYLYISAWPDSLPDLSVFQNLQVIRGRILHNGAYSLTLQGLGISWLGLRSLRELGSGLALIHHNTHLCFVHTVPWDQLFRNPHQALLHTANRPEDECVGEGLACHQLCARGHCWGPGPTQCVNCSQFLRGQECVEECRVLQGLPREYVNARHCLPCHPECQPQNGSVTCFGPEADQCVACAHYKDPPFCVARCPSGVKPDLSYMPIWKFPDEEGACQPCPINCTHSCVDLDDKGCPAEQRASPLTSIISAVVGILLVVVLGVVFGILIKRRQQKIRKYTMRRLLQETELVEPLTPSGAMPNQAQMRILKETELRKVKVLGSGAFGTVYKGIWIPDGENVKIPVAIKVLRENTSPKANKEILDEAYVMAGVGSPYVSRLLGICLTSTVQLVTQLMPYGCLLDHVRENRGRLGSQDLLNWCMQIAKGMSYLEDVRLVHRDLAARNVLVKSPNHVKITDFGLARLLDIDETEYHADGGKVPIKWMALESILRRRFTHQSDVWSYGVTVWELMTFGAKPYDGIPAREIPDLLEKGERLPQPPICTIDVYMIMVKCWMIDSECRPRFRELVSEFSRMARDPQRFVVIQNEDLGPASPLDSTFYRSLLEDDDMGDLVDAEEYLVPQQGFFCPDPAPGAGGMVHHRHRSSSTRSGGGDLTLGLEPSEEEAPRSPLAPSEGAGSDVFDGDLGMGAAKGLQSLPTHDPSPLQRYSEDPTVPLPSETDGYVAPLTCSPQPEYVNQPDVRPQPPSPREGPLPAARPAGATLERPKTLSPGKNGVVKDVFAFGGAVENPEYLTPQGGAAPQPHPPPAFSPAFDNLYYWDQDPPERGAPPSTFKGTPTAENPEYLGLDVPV

5-hydroxytryptamine receptor 2B, sequence (P41595 whole entry): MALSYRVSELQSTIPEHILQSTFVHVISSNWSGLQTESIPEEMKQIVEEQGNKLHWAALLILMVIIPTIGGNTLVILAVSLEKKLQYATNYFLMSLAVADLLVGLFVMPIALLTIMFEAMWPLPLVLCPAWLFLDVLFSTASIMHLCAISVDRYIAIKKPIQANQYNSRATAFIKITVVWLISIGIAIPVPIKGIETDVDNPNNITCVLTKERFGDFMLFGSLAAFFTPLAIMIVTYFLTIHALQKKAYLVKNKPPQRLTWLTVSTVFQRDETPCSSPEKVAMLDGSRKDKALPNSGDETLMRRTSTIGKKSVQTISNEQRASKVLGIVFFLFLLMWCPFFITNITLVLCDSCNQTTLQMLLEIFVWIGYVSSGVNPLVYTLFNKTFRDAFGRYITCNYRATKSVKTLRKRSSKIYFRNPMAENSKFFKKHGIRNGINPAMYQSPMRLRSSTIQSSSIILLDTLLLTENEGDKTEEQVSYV
Delta-type opioid receptor, sequence (P41143 whole entry): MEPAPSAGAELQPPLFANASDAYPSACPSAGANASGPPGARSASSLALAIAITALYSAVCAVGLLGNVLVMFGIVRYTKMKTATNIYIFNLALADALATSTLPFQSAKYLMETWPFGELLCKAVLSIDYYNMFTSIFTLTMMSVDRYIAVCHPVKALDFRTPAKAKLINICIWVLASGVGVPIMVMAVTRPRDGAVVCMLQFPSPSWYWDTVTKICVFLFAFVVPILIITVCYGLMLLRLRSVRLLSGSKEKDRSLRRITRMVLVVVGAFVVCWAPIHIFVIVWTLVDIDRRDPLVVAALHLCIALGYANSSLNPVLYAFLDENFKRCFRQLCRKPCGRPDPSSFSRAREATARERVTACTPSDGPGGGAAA
Prostaglandin G/H synthase 1, sequence (P23219 whole entry): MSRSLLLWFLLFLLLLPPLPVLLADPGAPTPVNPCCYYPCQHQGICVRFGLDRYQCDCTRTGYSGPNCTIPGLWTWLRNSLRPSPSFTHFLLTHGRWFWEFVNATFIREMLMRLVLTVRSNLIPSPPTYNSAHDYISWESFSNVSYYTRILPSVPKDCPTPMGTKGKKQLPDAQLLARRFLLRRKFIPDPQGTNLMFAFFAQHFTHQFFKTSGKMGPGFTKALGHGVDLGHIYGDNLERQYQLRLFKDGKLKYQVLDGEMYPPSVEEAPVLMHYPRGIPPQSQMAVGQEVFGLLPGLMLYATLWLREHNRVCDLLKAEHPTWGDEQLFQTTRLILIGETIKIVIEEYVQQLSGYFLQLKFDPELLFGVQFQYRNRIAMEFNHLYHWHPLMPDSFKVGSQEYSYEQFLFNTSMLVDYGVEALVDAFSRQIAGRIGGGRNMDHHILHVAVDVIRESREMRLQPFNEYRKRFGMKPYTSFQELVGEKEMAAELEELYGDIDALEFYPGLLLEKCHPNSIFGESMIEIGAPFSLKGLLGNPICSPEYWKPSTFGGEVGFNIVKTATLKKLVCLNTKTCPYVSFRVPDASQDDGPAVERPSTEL
Epidermal growth factor receptor, sequence (P00533 whole entry): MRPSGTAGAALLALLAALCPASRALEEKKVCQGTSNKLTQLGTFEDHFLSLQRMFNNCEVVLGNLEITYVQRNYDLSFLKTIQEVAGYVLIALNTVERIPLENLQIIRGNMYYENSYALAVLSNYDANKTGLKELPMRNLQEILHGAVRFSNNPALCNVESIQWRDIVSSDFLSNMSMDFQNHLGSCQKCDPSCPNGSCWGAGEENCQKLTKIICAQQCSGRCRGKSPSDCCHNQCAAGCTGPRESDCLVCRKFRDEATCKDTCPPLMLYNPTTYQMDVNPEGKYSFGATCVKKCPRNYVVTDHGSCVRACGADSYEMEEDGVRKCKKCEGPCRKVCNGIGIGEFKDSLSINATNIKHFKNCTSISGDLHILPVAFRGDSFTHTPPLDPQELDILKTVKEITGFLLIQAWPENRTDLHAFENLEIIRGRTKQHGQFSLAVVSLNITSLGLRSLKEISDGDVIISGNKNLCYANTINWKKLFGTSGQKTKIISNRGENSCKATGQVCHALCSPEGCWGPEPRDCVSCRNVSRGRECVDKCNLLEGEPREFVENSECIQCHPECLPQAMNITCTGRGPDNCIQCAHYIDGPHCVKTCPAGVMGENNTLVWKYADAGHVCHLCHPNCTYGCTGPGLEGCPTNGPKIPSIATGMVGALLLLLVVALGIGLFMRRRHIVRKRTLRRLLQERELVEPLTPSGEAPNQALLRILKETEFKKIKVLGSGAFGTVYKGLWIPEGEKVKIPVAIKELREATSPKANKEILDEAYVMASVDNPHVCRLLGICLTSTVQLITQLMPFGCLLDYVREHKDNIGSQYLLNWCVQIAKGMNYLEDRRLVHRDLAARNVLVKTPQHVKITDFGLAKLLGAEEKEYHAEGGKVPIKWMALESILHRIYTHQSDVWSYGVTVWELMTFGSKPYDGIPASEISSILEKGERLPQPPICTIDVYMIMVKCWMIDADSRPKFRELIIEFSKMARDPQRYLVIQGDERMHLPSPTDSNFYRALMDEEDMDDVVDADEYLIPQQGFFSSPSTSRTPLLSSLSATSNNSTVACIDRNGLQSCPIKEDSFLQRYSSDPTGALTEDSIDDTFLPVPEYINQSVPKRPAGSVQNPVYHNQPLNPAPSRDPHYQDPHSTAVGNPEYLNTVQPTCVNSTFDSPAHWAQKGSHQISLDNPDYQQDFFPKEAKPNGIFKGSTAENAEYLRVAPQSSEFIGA
Beta-1 adrenergic receptor, sequence (P08588 whole entry): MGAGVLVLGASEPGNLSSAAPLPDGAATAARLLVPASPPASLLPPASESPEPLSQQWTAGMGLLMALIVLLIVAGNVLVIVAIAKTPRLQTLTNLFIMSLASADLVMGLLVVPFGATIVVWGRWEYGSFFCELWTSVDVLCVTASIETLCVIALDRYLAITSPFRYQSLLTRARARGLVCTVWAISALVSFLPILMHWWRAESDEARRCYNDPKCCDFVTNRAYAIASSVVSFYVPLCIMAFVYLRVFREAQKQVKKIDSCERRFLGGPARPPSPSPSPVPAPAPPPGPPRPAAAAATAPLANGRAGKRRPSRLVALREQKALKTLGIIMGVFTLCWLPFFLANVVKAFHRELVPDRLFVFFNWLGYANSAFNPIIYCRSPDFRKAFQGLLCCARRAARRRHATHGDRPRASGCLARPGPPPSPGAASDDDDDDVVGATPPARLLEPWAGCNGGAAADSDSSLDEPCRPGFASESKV

As for `OCc1ccccc1` [BENZYL ALCOHOL], the IC50 result in experiment [1], in experiment [2], in experiment [3], in experiment [4], in experiment [5] and in [6] was “Not Active” in each case. Moreover, the IC50 entry in experiment [7], in experiment [8], in experiment [9] and in experiment [11] was “Not Active” throughout. In addition, the Ki entry in [6] and in experiment [10] was “Not Active” each time.

`CC(C)(Oc1ccc(CCNC(=O)c2ccc(Cl)cc2)cc1)C(=O)O` [BEZAFIBRATE]: the IC50 entry in experiment [1], in experiment [2], in [3], in experiment [4], in experiment [5] and in experiment [6] was “Not Active” in each case. For the same molecule, the IC50 result in experiment [7], in experiment [8], in [9], in experiment [10] and in [11] was “Not Active” throughout. Also, the Ki result in experiment [6] is listed as “Not Active”.

Regarding `CCCC[C@@H](CC)COC(=O)c1ccccc1C(=O)OC[C@@H](CC)CCCC` [BIS(2-ETHYLHEXYL)PHTHALATE], the IC50 result in experiment [1], in [2], in experiment [3], in experiment [4], in experiment [5] and in experiment [6] was “Not Active” each time. The IC50 result in experiment [7], in experiment [8], in experiment [9], in experiment [10] and in experiment [11] was “Not Active” in each case. Also, the Ki result in experiment [6] was “Not Active”.

As for `Brc1ccccc1` [BROMOBENZENE], the IC50 result in experiment [1], in [2], in experiment [3], in experiment [4], in experiment [5] and in [6] was “Not Active” each time. Moreover, the IC50 entry in experiment [7], in experiment [8], in [9], in experiment [10] and in [11] was “Not Active” throughout. Besides, the Ki result in experiment [6] is listed as “Not Active”.

With `CCCCOC(=O)c1ccc(N)cc1` [BUTAMBEN], the IC50 result in experiment [1], in [2], in experiment [3], in [4], in experiment [5] and in experiment [6] was “Not Active” each time. Besides, the IC50 entry in [7], in experiment [8], in experiment [9], in [10] and in experiment [11] was “Not Active” throughout. Moreover, the Ki result in experiment [6] is recorded as “Not Active”.

As a reminder, the pIC50 is the negative decadic logarithm of the IC50, by convention in mol/L. The term pKi denotes −log10 of the Ki, conventionally taken in molar units. In the case of `CC[C@@]1(O)C(=O)OCc2c1cc1n(c2=O)Cc2cc3ccccc3nc2-1` [CAMPTOTHECIN], the IC50 result in experiment [1], in experiment [2], in [4], in experiment [5], in [6] and in experiment [7] was “Not Active” throughout. Further, the IC50 result in experiment [8], in experiment [9], in experiment [10] and in [11] was “Not Active” throughout. Also, in experiment [3] (read-out: IC50), the pIC50 is 6.01. The negative-log Ki (pKi) in experiment [3] (read-out: Ki) was 6.21. In addition, the Ki result in [6] was “Not Active”.

With `COCc1c(C(C)C)nc(C(C)C)c(/C=C/[C@@H](O)C[C@@H](O)CC(=O)O)c1-c1ccc(F)cc1` [CERIVASTATIN], the IC50 result in experiment [1], in experiment [2], in [3], in experiment [4], in experiment [5] and in experiment [6] was “Not Active” throughout. Moreover, the IC50 entry in experiment [7], in experiment [8], in [9], in [10] and in [11] was “Not Active” each time. For the same molecule, in experiment [6], the Ki result is reported as “Not Active”.

Take `CC(=O)O[C@]1(C(C)=O)CC[C@H]2[C@@H]3C=C(Cl)C4=CC(=O)CC[C@]4(C)[C@H]3CC[C@@]21C` [CHLORMADINONE ACETATE]: the IC50 entry in experiment [1], in [2], in experiment [3], in experiment [4], in experiment [5] and in experiment [6] was “Not Active” each time. Also, the IC50 result in experiment [7], in experiment [8], in experiment [9], in experiment [10] and in experiment [11] was “Not Active” each time. For the same molecule, the Ki entry in experiment [6] was “Not Active”.

With `O=C1CCc2cc(OCCCCc3nnnn3C3CCCCC3)ccc2N1` [CILOSTAZOL], the IC50 entry in experiment [1], in experiment [2], in [3], in experiment [4], in experiment [5] and in experiment [6] was “Not Active” each time. In addition, the IC50 result in experiment [7], in experiment [8], in experiment [9], in experiment [10] and in experiment [11] was “Not Active” throughout. Moreover, the Ki result in [6] is “Not Active”.
